Results from the supplement of paper PMC7394473.

Columns and labels:
Conditions in all cases: 72 h
[1] = tested on: U2OS; assay: fractional viability (live cells / total cells); higher = less cell death
Method: (§1)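 U2OS::Nuc-mKate2 cells seeded in 96-well plates and treated with eight- to ten-point half-log or log dilutions of drug in the presence of 50 nM SYTOX Green. Live (mKate2+) and dead (SYTOX+) cells were counted by IncuCyte STACK live-cell microscopy at 72 h; biological triplicates. GR is the normalised growth-rate inhibition value (Hafner 2016; 1 = untreated growth, <0 = population shrinking). FV is live/(live+dead) cells, not normalised.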

[2] = tested on: U2OS; assay: drug GRADE (percent of response due to cell death) (% (0-100)); higher = more death-driven response
Method: (§2)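 U2OS cells treated with full dose titrations of drug; live and dead cells counted by STACK microscopy (mKate2 nuclei, SYTOX Green) at 72 h, biological triplicates. GR and FV dose responses were fitted with 4-parameter logistic models (GR lower bound -1). GRADE (0-100) is the rescaled angle of a linear fit of FV versus GR at doses with GR >= 0, giving the percentage of the response due to cell death.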

[3] = tested on: U2OS; assay: normalized growth rate inhibition value (GR) relative to untreated cells (GR value (dimensionless, 1 = untreated growth)); higher = less growth inhibition
Method: as §1

[4] = tested on: U2OS; assay: GRmin (fitted minimal GR value at highest effect) (GR value (dimensionless)); higher = less efficacious
Method: as §2

[5] = tested on: U2OS; assay: GR50 (concentration giving GR = 0.5)
Method: as §2

SMILES	fractional viability ([1]; 0.01 µM)	fractional viability ([1]; 0.0316 µM)	fractional viability ([1]; 0.1 µM)	fractional viability ([1]; 0.316 µM)	fractional viability ([1]; 1 µM)	fractional viability ([1]; 3.16 µM)	fractional viability ([1]; 10 µM)	fractional viability ([1]; 31.6 µM)	drug GRADE [2]	normalized growth rate inhibition value ([3]; 0.01 µM)	normalized growth rate inhibition value ([3]; 0.0316 µM)	normalized growth rate inhibition value ([3]; 0.1 µM)	normalized growth rate inhibition value ([3]; 0.316 µM)	normalized growth rate inhibition value ([3]; 1 µM)	normalized growth rate inhibition value ([3]; 3.16 µM)	normalized growth rate inhibition value ([3]; 10 µM)	normalized growth rate inhibition value ([3]; 31.6 µM)	GRmin [4]	GR50 [5]	fractional viability ([1]; 0.00100578 µM)	further results
Cc1ccc(Nc2nccc(N(C)c3ccc4c(C)n(C)nc4c3)n2)cc1S(N)(=O)=O [Pazopanib]	0.98	0.986	0.98	0.978	0.979	0.978	0.917	0.763	47.8	0.995	1.04	1.07	1	1.04	0.915	0.68	0.431	0.369	19.9 µM		
CS(=O)(=O)N1CCN(Cc2cc3nc(-c4cccc5[nH]ncc45)nc(N4CCOCC4)c3s2)CC1 [Pictilisib]							0.854		30.9							0.455		0.374	1.48 µM	0.988	fractional viability ([1]; 0.00317827 µM): 0.989; fractional viability ([1]; 0.0100433 µM): 0.985; fractional viability ([1]; 0.0317369 µM): 0.985; fractional viability ([1]; 0.100289 µM): 0.975; fractional viability ([1]; 0.316912 µM): 0.96; fractional viability ([1]; 1.00144 µM): 0.936; fractional viability ([1]; 3.16456 µM): 0.844; normalized growth rate inhibition value ([3]; 0.00100578 µM): 1.02; normalized growth rate inhibition value ([3]; 0.00317827 µM): 0.948; normalized growth rate inhibition value ([3]; 0.0100433 µM): 0.953; normalized growth rate inhibition value ([3]; 0.0317369 µM): 0.837; normalized growth rate inhibition value ([3]; 0.100289 µM): 0.872; normalized growth rate inhibition value ([3]; 0.316912 µM): 0.842; normalized growth rate inhibition value ([3]; 1.00144 µM): 0.628; normalized growth rate inhibition value ([3]; 3.16456 µM): 0.306
C=CCNc1ncnc2ccc(Br)cc12 [SMER28]	0.977	0.977	0.98	0.979	0.982	0.975	0.973	0.977		1.03	1.09	0.962	1.02	1.02	0.992	0.909	0.866	0.864			
Cc1cc(C(C)Nc2ccccc2)c2nc(N3CCOCC3)cc(=O)n2c1 (configuration not stated) [TGX221]							0.977									1		0.951		0.988	fractional viability ([1]; 0.00317827 µM): 0.986; fractional viability ([1]; 0.0100433 µM): 0.988; fractional viability ([1]; 0.0317369 µM): 0.986; fractional viability ([1]; 0.100289 µM): 0.988; fractional viability ([1]; 0.316912 µM): 0.99; fractional viability ([1]; 1.00144 µM): 0.986; fractional viability ([1]; 3.16456 µM): 0.986; normalized growth rate inhibition value ([3]; 0.00100578 µM): 1.1; normalized growth rate inhibition value ([3]; 0.00317827 µM): 1.06; normalized growth rate inhibition value ([3]; 0.0100433 µM): 1.04; normalized growth rate inhibition value ([3]; 0.0317369 µM): 1.02; normalized growth rate inhibition value ([3]; 0.100289 µM): 0.94; normalized growth rate inhibition value ([3]; 0.316912 µM): 1.02; normalized growth rate inhibition value ([3]; 1.00144 µM): 0.955; normalized growth rate inhibition value ([3]; 3.16456 µM): 1.08
Cc1nc(-c2cn3c(n2)-c2ccc(-c4cnn(C(C)(C)C(N)=O)c4)cc2OCC3)n(C(C)C)n1 [Taselisib]							0.856		24.5							0.389			4.98 µM	0.987	fractional viability ([1]; 0.00317827 µM): 0.983; fractional viability ([1]; 0.0100433 µM): 0.979; fractional viability ([1]; 0.0317369 µM): 0.973; fractional viability ([1]; 0.100289 µM): 0.964; fractional viability ([1]; 0.316912 µM): 0.952; fractional viability ([1]; 1.00144 µM): 0.959; fractional viability ([1]; 3.16456 µM): 0.937; normalized growth rate inhibition value ([3]; 0.00100578 µM): 1; normalized growth rate inhibition value ([3]; 0.00317827 µM): 0.924; normalized growth rate inhibition value ([3]; 0.0100433 µM): 0.852; normalized growth rate inhibition value ([3]; 0.0317369 µM): 0.765; normalized growth rate inhibition value ([3]; 0.100289 µM): 0.83; normalized growth rate inhibition value ([3]; 0.316912 µM): 0.69; normalized growth rate inhibition value ([3]; 1.00144 µM): 0.669; normalized growth rate inhibition value ([3]; 3.16456 µM): 0.604
Cn1nnc2c(C(N)=O)ncn2c1=O [Temozolamide]	0.982	0.982	0.981	0.977	0.975	0.978	0.98	0.975		0.992	1.07	0.975	1.05	0.984	0.894	0.954	1.02	0.955			
Nc1ccc(-c2ccc3ncc4ccc(=O)n(-c5cccc(C(F)(F)F)c5)c4c3c2)cn1 [Torin2]					0.971				4.29					0.523				-0.853			fractional viability ([1]; 0.000100578 µM): 0.988; fractional viability ([1]; 0.000317827 µM): 0.985; fractional viability ([1]; 0.00100433 µM): 0.986; fractional viability ([1]; 0.00317369 µM): 0.988; fractional viability ([1]; 0.0100289 µM): 0.988; fractional viability ([1]; 0.0316912 µM): 0.989; fractional viability ([1]; 0.100144 µM): 0.987; fractional viability ([1]; 0.316456 µM): 0.985; normalized growth rate inhibition value ([3]; 0.000100578 µM): 0.795; normalized growth rate inhibition value ([3]; 0.000317827 µM): 0.854; normalized growth rate inhibition value ([3]; 0.00100433 µM): 0.924; normalized growth rate inhibition value ([3]; 0.00317369 µM): 0.826; normalized growth rate inhibition value ([3]; 0.0100289 µM): 0.841; normalized growth rate inhibition value ([3]; 0.0316912 µM): 0.85; normalized growth rate inhibition value ([3]; 0.100144 µM): 0.832; normalized growth rate inhibition value ([3]; 0.316456 µM): 0.916
CC(=O)Nc1cccc(-n2c(=O)n(C3CC3)c(=O)c3c(Nc4ccc(I)cc4F)n(C)c(=O)c(C)c32)c1 [Trametinib]					0.466									0.0402							fractional viability ([1]; 0.000100578 µM): 0.978; fractional viability ([1]; 0.000317827 µM): 0.974; fractional viability ([1]; 0.00100433 µM): 0.965; fractional viability ([1]; 0.00317369 µM): 0.951; fractional viability ([1]; 0.0100289 µM): 0.915; fractional viability ([1]; 0.0316912 µM): 0.732; fractional viability ([1]; 0.100144 µM): 0.524; fractional viability ([1]; 0.316456 µM): 0.442; normalized growth rate inhibition value ([3]; 0.000100578 µM): 0.839; normalized growth rate inhibition value ([3]; 0.000317827 µM): 0.677; normalized growth rate inhibition value ([3]; 0.00100433 µM): 0.696; normalized growth rate inhibition value ([3]; 0.00317369 µM): 0.569; normalized growth rate inhibition value ([3]; 0.0100289 µM): 0.582; normalized growth rate inhibition value ([3]; 0.0316912 µM): 0.319; normalized growth rate inhibition value ([3]; 0.100144 µM): 0.0761; normalized growth rate inhibition value ([3]; 0.316456 µM): 0.0524
CC[C@]1(O)C[C@@H]2CN(CCc3c([nH]c4ccccc34)[C@@](C(=O)OC)(c3cc4c(cc3OC)N(C)[C@H]3[C@@](O)(C(=O)OC)[C@H](OC(C)=O)[C@]5(CC)C=CCN6CC[C@]43[C@@H]65)C2)C1 [Vinblastine]		0.5		0.467		0.416		0.166	3.36		0.0629		0.0107		-0.0225		-0.258				fractional viability ([1]; 0.00316 µM): 0.426; normalized growth rate inhibition value ([3]; 0.00316 µM): 0.057
